Measured values: ChEMBL document CHEMBL3832075, “DailyMed|setid=ff7c9b1c-4192-4d09-a2ab-b80ec14cd424 | PENTOXIL- pentoxifylline tablet, film coated, extended release|UPSHER-SMITH LABORATORIES, INC”

Assays:
[1] = (§1) Pharmacokinetic parameters for Pentoxifylline evaluated after oral administration of Pentoxifylline tablet and in aqueous solution.; format: ADME, organism-based; settings: human, in vivo, dosed compound id 54, dosed compound name PENTOXIFYLLINE, tissue Plasma
[2] = test system: Homo sapiens; assay: as §1; format: ADME, organism-based; settings: in vivo, po, dose 400 mg, dosed compound id 54, dosed compound name PENTOXIFYLLINE, tissue Plasma

CC(=O)CCCCn1c(=O)c2c(ncn2C)n(C)c1=O [PENTOXIFYLLINE]
half-life ([1]; dose 100 to 400 mg): 0.4 to 0.8 h | Tmax [1]: 1 h | Tmax [2]: 2 to 4 h
